# Measurements as given in patent US20080096884A1, “4-Aminoquinoline-3-Carboxamide Derivatives as Pde4 Inhibitors” (priority 2003, published 2008).
# Columns and labels:
# [1] = target: T1, PDE4B (human recombinant) (Homo sapiens, UniProt Q07343); assay: Inhibition of PDE4B catalytic activity (SPA or IMAP FP assay); format: biochemical; details: SPA or FP assay not specified, read-out: PDE4B mean pIC50 (converted)
# T1 construct: made in house; host or cells: Saccharomyces cerevisiae strain GL62 (as described in the cited WO 94/20079)
# T1 sequence (Q07343 1-564 isoform Q07343-2): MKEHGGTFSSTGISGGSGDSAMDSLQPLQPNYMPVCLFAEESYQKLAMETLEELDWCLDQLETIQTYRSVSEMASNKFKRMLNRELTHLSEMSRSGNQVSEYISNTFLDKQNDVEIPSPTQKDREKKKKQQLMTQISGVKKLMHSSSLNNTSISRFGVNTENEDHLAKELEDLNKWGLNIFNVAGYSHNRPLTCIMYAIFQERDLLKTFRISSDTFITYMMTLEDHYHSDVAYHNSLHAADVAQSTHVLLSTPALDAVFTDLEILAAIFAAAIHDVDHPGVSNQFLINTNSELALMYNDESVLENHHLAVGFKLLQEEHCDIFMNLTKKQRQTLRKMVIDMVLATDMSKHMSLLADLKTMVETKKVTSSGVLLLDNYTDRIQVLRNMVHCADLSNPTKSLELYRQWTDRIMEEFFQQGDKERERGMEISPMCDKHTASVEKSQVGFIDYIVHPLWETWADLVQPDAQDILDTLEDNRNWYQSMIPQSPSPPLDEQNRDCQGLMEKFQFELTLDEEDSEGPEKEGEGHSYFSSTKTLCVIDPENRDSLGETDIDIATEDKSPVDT
# From the text: Human recombinant PDE4B, in particular the 2B splice variant thereof (HSPDE4B2B), is disclosed in WO 94/20079 and also in M. M. McLaughlin et al., “A low Km, rolipram-sensitive, cAMP-specific phosphodiesterase from human brain: cloning and expression of cDNA, biochemical characterisation of recombinant protein, and tissue distribution of mRNA”, J. Biol. Chem., 1993, 268, 6470-6476. […]
# (§1) The ability of compounds to inhibit catalytic activity at PDE4B or 4D (human recombinant), PDE3 (from bovine aorta) PDE5 (human recombinant) or PDE 6 (from bovine retina) may be determined by Scintillation Proximity Assay (SPA) in 96-well format. […] Bound radioactive product was measured using a WALLAC TRILUX 1450 MicroBeta scintillation counter. […] Curves were analysed using ActivityBase and XLfit (ID Businesss Solutions Limited, 2 Ocean Court, Surrey Research Park, Guildford, Surrey GU2 7QB, United Kindgom). Results were expressed as pIC50 values.
# The ability of compounds to inhibit catalytic activity at PDE4B (human recombinant) and PDE4D (human recombinant) was determined by IMAP Fluorescence Polarisation (FP) assay (Molecular Devices Ltd code: R8062) in 384-well format. […]
# Fluorescein adenosine 3′,5′-cyclic phosphate (Molecular Devices Ltd code: R7091) was added to give ˜40 nM final concentration. […] Curves were analysed using ActivityBase and XLfit (ID Businesss Solutions Limited). […]
# PDE5 (human recombinant) = PDE5 (human recombinant) (Homo sapiens, UniProt O76074); assay: Inhibition of PDE5 catalytic activity (SPA); format: biochemical; details: read-out: PDE5 mean pIC50 (converted)
# From the text: Human recombinant PDE5 is disclosed in K. Loughney et al., “Isolation and characterisation of cDNAs encoding PDE5A, a human cGMP-binding, cGMP-specific 3′,5′-cyclic nucleotide phosphodiesterase”, Gene, 1998, 216, 139-147.
# as §1, with “format. Test compounds (preferably as a solution in DMSO, e.g. 2 microlitre (μl) volume) were preincubated at ambient temperature in Wallac Isoplates (code 1450-514) with PDE enzyme in 50 mM Tris-HCl buffer pH 7.5, 8.3 mM MgCl2, 1.7 mM EGTA, 0.05% (w/v) bovine serum albumin for 10-30 minutes. The enzyme concentration was adjusted so that control rates are linear over the asay incubation period.” for “format.”
IC50 [1],IC50 (PDE5 (human recombinant)),Compound
0.00251 µM,12.6 µM,NC(=O)c1cnc2ccc(S(=O)(=O)N3CCOCC3)cc2c1Nc1cccc(Cl)c1 [Example 4]
0.001 µM,15.8 µM,"COc1cccc(Nc2c(C(N)=O)cnc3ccc(S(=O)(=O)N(C)C)cc23)c1 [Example 2, 6-[(dimethylamino)sulfonyl]4-{[3-(methyloxy)phenyl]amino}-3-quinolinecarboxamide]"
